From US12624015B2, “JNK inhibitors as anticancer agents” (University of Iowa Research Foundation, priority 2019, dated 2026) come the findings set out here.

Like-named read-outs stand apart in the source and are kept apart here.

This experiment deals with A549 adenocarcinoma cell line. Briefly: In vitro antitumor screening, MTS assay. The class given is cell-based. The settings on record: Homo sapiens. On the procedure: The synthesized derivatives were tested for their antitumor activity adopting MTS assay against A549 adenocarcinoma cell line following the reported assay method In Riss et al. Results are shown in Table 2.
(Tetrazolium assays rely on reduction of a dye to a coloured formazan, in cell work by metabolically active cells.)

[1] abbreviates: A549 adenocarcinoma cell line, Table 2, read-out: IC50.
Where [2] appears, read: A549 cell line, read-out: IC50, MTS assay against A549 cell line.

As to `N#Cc1c(NCc2ccc(Br)cc2)sc2c1CCCC2` [Compound 10], the IC50 (commonly the point on the concentration scale where inhibition reaches its midpoint) worked out at 2700 nM under setting [1] and 2700 nM under setting [2]. In the case of `N#Cc1c(NC(=O)c2cccc(Br)c2)sc2c1CCCC2` [Compound 4], the IC50 under setting [2] was 7600 nM.

On to `N#Cc1c(NC(=O)NCc2ccccc2)sc2c1CCCC2` [Compound 11], for which the IC50 reads like this: under setting [1], 1600 nM; under setting [2], 1600 nM.
